Assay results: paper PMC12586667 (Scientific Reports, 2025)

What was measured:
[1] = molecular target: CYP2D6 (Homo sapiens, UniProt P10635); test: CYP2D6 activity on chip by quantifying 1-OH bufuralol; type: in vitro ADME
[2] = molecular target: CYP2C9 (Homo sapiens, UniProt P11712); test: CYP2C9 activity on chip by quantifying 4-OH diclofenac; type: in vitro ADME
[3] = Stability of metabolite in medium containing 10% FBS; type: in vitro ADME; settings: could not be measured
[4] = model drugs with minimal first-pass effects; cited from earlier work
[5] = tested on: WT and genome-edited intestine-liver-on-a-chip (Caco-2 and HepG2 cells); test: Drug permeability assay; type: in vitro ADME, human; settings: for drug concentration in the top channel / drug concentration in the bottom channel: WT and genome-edited chips
[6] = molecular target: T1, CYP1A2 (Homo sapiens, UniProt P05177); test: CYP1A2 activity on chip by quantifying ISOPRO; type: in vitro ADME
T1 sequence (P05177 1-516): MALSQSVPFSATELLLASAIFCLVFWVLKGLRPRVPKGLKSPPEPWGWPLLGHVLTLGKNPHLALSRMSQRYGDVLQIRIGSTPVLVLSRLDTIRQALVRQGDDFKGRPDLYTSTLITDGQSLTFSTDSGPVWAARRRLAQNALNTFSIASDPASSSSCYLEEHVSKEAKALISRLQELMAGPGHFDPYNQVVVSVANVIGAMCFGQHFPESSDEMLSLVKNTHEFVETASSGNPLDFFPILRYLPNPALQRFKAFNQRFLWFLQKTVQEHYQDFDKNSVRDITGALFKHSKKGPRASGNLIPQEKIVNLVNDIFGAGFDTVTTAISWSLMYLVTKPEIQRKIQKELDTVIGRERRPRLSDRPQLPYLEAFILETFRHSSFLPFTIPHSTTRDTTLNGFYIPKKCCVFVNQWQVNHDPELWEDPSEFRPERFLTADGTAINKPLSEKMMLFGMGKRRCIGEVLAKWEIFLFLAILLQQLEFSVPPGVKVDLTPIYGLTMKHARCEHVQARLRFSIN

[7] = Measurement of drug absorption; type: physicochemical; settings: within 2 h
[8] = coadministration; cited from earlier work
[9] = molecular target: CYP3A4 (Homo sapiens, UniProt P08684); test: CYP3A4 activity on chip by quantifying α-OH triazolam; type: in vitro ADME; settings: flow conditions
CYP3A4, sequence (P08684 whole entry): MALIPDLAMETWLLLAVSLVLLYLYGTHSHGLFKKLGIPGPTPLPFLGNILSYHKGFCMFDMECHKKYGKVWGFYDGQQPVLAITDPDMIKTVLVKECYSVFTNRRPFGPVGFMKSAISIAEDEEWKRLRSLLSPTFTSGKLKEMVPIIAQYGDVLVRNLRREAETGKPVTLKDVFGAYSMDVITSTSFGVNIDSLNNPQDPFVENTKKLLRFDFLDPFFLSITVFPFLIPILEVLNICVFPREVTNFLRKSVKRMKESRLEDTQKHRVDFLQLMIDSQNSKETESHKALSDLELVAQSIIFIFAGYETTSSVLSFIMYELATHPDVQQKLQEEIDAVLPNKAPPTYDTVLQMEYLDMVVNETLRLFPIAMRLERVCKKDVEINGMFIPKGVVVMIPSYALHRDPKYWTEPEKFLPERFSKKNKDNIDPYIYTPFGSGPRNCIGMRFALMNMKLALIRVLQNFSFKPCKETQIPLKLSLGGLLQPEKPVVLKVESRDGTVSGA

[10] = tested on: intestine-liver-on-a-chip (Caco-2 and HepG2 cells); test: Lucifer yellow permeability assay; type: in vitro ADME, human; settings: WT and genome-edited chips vs WT or genome-edited Caco-2 mono-culture
[11] = both static and flow conditions

CYP2D6, sequence (P10635 whole entry): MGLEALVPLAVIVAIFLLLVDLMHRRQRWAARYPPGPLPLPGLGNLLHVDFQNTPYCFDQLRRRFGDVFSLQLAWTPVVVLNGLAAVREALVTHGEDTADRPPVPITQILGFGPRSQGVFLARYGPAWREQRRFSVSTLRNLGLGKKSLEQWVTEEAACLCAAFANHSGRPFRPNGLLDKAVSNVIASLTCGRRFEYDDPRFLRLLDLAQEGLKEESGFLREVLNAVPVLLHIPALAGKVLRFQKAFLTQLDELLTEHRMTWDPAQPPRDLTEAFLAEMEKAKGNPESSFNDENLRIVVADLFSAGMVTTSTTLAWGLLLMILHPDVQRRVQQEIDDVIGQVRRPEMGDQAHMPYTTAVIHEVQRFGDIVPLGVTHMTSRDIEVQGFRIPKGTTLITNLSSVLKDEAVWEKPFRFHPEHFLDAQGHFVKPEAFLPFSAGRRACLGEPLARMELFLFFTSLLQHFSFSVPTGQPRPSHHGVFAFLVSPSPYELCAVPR
CYP2C9, sequence (P11712 whole entry): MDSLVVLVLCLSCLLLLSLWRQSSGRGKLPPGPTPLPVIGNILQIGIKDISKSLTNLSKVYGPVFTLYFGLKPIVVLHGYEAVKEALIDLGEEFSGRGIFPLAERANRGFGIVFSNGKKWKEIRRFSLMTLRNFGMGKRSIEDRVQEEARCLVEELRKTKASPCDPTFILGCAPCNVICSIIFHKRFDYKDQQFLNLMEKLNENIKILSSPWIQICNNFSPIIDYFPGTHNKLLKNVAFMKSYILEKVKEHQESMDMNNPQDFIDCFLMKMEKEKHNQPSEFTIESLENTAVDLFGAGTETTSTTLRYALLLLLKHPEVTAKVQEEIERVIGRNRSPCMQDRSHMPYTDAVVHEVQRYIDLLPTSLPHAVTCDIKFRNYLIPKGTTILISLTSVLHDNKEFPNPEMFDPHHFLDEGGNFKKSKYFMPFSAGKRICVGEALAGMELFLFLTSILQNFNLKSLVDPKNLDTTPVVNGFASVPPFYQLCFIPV

1’-hydroxy bufuralol [1-OH bufuralol]
metabolite concentration, genome-edited chip vs WT chip ([1]; flow, top and bottom channels, 24 and 48 h): higher in the genome-edited chip compared to the WT chip
metabolite concentration, flow vs static conditions ([1]; genome-edited chip): higher than that observed in the static conditions

O=C(O)Cc1ccccc1Nc1c(Cl)cc(O)cc1Cl [4-OH diclofenac, 4’-hydroxy diclofenac]
metabolite concentration, genome-edited chip vs WT chip ([2]; flow, top and bottom channel, 24 and 48 h): higher in the genome-edited chip Flow compared to the WT chip Flow
metabolite concentration, static vs flow conditions ([2]; top channel of genome-edited chip): higher than that under flow conditions

CC(C)NCC(O)COc1ccc(O)c2ccccc12 (centres unmarked) [4-OH propranolol, 4-hydroxy propranolol]
stability [3]: extremely unstable

CC(=O)Nc1ccc(O)cc1 [APAP, acetaminophen]
oral bioavailability (F) [4]: > 0.7
drug concentration in the top channel, genome-edited chip vs WT chip ([5]; flow conditions, 24 and 48 h): slightly higher than those in the WT chip
drug concentration in the top channel ([5]; flow conditions, 24 and 48 h, 10 μM): decreased compared to the initial concentration of 10 μM
drug concentration in the bottom channel ([5]; flow conditions): increased substantially
drug concentration in the bottom channel ([5]; static conditions, 10 μM): increased in a time-dependent manner
drug concentration in the top channel ([5]; static conditions, 10 μM): remained constant

NCC(O)COc1cccc2ccccc12 (centres unmarked) [ISOPRO, desisopropylpropranolol]
metabolite concentration in the bottom channel ([6]; flow conditions vs static): increased under flow conditions
metabolite concentration in the top channel ([6]; flow conditions vs static): no change was observed
metabolite concentration, genome-edited chip vs WT chip ([6]; flow, top and bottom channels, 1 μM propranolol): higher in the genome-edited chip under flow conditions compared to the WT chip
time of peak concentration in the bottom channel ([6]; genome-edited chip, flow conditions): 24 h

CCc1cccc2cc(C(O)CNC(C)(C)C)oc12 (centres unmarked) [bufuralol]
drug concentration, genome-edited chips vs WT chips ([5]; after 48 h): slightly lower in the genome-edited chips than in the WT chips
drug concentration in the top channel [5, 11]: rapid decrease in concentration
drug concentration in the bottom channel ([5]; flow conditions): increased substantially compared to static conditions
adsorption onto the PDMS device [7]: substantially adsorbed

Cn1c(=O)c2c(ncn2C)n(C)c1=O [caffeine]
oral bioavailability (F) [4]: > 0.7

O=C(O)Cc1ccccc1Nc1c(Cl)cccc1Cl [diclofenac]
drug concentration in the top channel [5, 11]: slightly reduced compared to the initial concentration of 10 μM

CCC(C)n1ncn(-c2ccc(N3CCN(c4ccc(OCC5COC(Cn6cncn6)(c6ccc(Cl)cc6Cl)O5)cc4)CC3)cc2)c1=O (centres unmarked) [itraconazole]
effect on the area under the curve (AUC) of triazolam [8]: increase the area under the curve (AUC) of triazolam

CC(C)NCC(O)COc1cccc2ccccc12 (centres unmarked) [propranolol]
drug concentration in the top channel [5, 11]: rapidly decreased
drug concentration, genome-edited chips vs WT chips ([5]; flow conditions, 24 and 48 h): significantly lower than those in the WT chips
drug concentration in the bottom channel ([5]; flow conditions): increased substantially
adsorption onto the PDMS device [7]: substantially adsorbed

Cc1nnc2n1-c1ccc(Cl)cc1C(c1ccccc1Cl)=NC2 [triazolam]
drug concentration in the top channel [5, 11]: rapid decrease in concentration
drug concentration, genome-edited chips vs WT chips ([5]; flow conditions, 24 and 48 h): lower than those in WT chips
drug concentration in the bottom channel ([5]; flow conditions): increased substantially
adsorption onto the PDMS device [7]: substantially adsorbed

OCc1nnc2n1-c1ccc(Cl)cc1C(c1ccccc1Cl)=NC2 [α-OH triazolam, α-hydroxy triazolam]
metabolite concentration, genome-edited chip vs WT chip [9]: higher than that observed in the WT chip

Lucifer Yellow CH [LY]
Papp of LY in chips compared to Caco-2 cells mono-culture [10]: lower in both the WT and genome-edited chips
